Results taken from patent US11597727B2 (THE REGENTS OF THE UNIVERSITY OF CALIFORNIA, priority 2018, dated 2023).

These molecules were tested against T1, integrin α2β1 (Homo sapiens, UniProt P05556+P17301) (assay: Cell adhesion assay, adhesion to collagen in vitro (cell type not stated for these values)). Conditions: compared with c15.
Format: cell-based
Design: endogenous in cells
Experimental: (§1) Cell adhesion Assay: Ninety-six-well flat-bottomed tissue culture plates were coated with rat tail collagen I for 1 hour at 37° C. After incubation, wells were blocked with 1% BSA at 37° C. for 1 hour. Control wells were filled with 1% BSA. HT1080 (human fibrosarcoma) cells (or human airway smooth muscle cells) were detached and resuspended in serum-free DMEM. Cells were incubated with anti-integrin alpha2 antibody control or 10-fold dilutions of each compound with a starting concentration of 10 uM for 15 minutes at 4° C. before plating. The plates were centrifuged at 10 g for 5 minutes before incubation for 1 hour at 37° C. in humidified 5% CO2. Nonadherent cells were removed by centrifugation (top side down) at 10 g for 5 minutes. Attached cells were stained with 0.5% crystal violet, and the wells were washed with PBS. The relative number of cells in each well was evaluated after solubilization in 40 μl of 2% Triton X-100 by measuring absorbance at 595 nm in a microplate reader. All determinations were carried out in triplicate.

T1 sequence (P17301 30-1181): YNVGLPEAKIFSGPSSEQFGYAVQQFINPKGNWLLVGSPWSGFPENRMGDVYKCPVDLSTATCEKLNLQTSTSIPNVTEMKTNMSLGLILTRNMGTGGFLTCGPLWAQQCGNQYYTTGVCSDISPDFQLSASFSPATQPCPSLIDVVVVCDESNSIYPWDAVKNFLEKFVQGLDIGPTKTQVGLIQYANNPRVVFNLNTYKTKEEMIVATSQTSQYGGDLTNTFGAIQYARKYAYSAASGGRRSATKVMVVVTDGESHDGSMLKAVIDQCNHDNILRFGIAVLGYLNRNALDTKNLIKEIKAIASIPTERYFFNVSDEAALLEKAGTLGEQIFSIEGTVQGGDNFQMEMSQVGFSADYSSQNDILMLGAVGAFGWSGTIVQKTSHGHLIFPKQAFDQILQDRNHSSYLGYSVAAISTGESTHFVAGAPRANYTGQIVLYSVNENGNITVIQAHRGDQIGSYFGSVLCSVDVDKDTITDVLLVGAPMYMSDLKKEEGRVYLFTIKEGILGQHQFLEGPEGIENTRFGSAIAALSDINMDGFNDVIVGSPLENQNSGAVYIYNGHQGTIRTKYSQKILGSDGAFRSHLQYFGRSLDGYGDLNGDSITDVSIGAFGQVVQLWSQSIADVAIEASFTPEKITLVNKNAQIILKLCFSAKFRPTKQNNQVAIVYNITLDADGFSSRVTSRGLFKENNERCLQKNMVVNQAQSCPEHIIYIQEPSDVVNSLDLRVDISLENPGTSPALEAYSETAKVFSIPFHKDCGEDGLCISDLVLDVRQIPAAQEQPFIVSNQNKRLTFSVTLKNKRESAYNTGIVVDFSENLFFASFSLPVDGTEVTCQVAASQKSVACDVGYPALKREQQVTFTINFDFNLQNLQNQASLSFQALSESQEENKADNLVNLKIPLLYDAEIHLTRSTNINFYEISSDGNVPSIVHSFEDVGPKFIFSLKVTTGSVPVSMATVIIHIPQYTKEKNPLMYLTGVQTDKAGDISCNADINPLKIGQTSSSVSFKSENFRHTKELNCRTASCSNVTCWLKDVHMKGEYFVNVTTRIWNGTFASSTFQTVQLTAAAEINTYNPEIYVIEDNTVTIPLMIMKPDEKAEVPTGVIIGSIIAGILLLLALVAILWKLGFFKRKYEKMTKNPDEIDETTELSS
T1 sequence (P05556 21-798): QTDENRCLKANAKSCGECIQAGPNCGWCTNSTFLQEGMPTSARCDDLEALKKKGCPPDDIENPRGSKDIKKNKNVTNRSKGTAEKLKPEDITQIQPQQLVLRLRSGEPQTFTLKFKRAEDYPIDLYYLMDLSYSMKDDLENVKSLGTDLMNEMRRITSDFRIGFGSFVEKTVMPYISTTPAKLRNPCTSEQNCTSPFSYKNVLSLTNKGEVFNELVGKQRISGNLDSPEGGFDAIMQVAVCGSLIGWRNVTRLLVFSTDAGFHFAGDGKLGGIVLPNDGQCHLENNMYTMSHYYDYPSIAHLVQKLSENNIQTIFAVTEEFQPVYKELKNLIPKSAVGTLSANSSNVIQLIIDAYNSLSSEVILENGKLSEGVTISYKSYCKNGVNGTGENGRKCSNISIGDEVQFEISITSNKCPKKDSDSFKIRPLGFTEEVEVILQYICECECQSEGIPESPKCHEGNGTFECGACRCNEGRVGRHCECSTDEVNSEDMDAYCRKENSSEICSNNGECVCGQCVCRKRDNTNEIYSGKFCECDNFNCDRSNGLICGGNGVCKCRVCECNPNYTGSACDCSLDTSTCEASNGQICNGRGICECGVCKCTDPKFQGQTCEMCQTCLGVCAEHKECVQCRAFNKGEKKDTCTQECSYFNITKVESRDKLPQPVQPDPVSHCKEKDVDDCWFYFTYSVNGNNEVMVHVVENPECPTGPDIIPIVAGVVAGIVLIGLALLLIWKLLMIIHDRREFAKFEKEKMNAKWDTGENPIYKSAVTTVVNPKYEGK

| fold less potent than c15 in a cell adhesion assay | Compound |
| --- | --- |
| 2 fold | O=C(NCc1ccccc1)NC[C@H](NC(=O)c1c(Cl)cccc1Cl)C(=O)O [A2-4, (S)-3-(3-benzylureido)-2-(2,6-dichlorobenzamido)propanoic acid] |

Each molecule was assayed against T1, integrin α2β1 (assay: HT 1080 cell adhesion assay on rat tail collagen I). Conditions: HT1080 (human fibrosarcoma) cells on rat tail collagen I, absorbance at 595 nm, triplicate; read-out: IC50s from HT 1080 Cell adhesion assay.
Format: cell-based
Design: HT1080 (human fibrosarcoma) cells (or human airway smooth muscle cells) were detached and resuspended in serum-free DMEM; endogenous in cells; host or cells: HT1080 human fibrosarcoma cells
Experimental: as §1

| IC50 | Compound |
| --- | --- |
| 10 to 100 µM | O=C(NCCC12CC3CC(CC(C3)C1)C2)NC[C@H](NC(=O)c1c(Cl)cccc1Cl)C(=O)O [A2-154, (S)-3-(3-(2-(adamantan-1-yl)ethyl)ureido)-2-(2,6-dichlorobenzamido)propanoic acid] |
| > 100 µM | O=C(NC[C@H](NC(=O)c1c(Cl)cccc1Cl)C(=O)O)OCc1ccccc1 [A2-72, (S)-3-(((benzyloxy)carbonyl)amino)-2-(2,6-dichlorobenzamido)propanoic acid] |
| 10 to 100 µM | COc1cc(C)c(C(=O)N[C@@H](CNC(=O)NCc2ccccc2)C(=O)O)c(C)c1 [A2-60, (S)-3-(3-benzylureido)-2-(4-methoxy-2,6-dimethylbenzamido)propanoic acid] |
| < 10 µM | O=C(NC[C@H](NC(=O)c1c(Cl)cccc1Cl)C(=O)O)NC1CCc2ccccc2C1 (stereo partly drawn) [A2-126, (2S)-2-(2,6-dichlorobenzamido)-3-(3-(1,2,3,4-tetrahydronaphthalen-2-yl)ureido)propanoic acid] |
| 10 to 100 µM | O=C(NCc1ccccc1Cl)NC[C@H](NC(=O)c1c(Cl)cccc1Cl)C(=O)O [KZ-1-18, (S)-3-(3-(2-chlorobenzyl)ureido)-2-(2,6-dichlorobenzamido)propanoic acid] |
| < 10 µM | O=C(NC[C@H](NC(=O)c1c(Cl)cccc1Cl)C(=O)O)N[C@@H]1CCCc2ccccc21 [A2-124, (2S)-2-(2,6-dichlorobenzamido)-3-(3-(1,2,3,4-tetrahydronaphthalen-1-yl)ureido)propanoic acid] |
| 10 to 100 µM | O=C(NC[C@H](NC(=O)c1c(Cl)cccc1Cl)C(=O)O)NC12CC3CC(C1)CC(C(=O)O)(C3)C2 [A2-143, 3-(3-((S)-2-carboxy-2-(2,6-dichlorobenzamido)ethyl)ureido)adamantane-1-carboxylic acid] |
| > 100 µM | O=C(CC1CCCCC1)N[C@@H](CNC(=O)NCc1ccccc1)C(=O)O [A2-64, (S)-3-(3-benzylureido)-2-(2-cyclohexylacetamido)propanoic acid] |
| 10 to 100 µM | COc1ccccc1CNC(=O)NC[C@H](NC(=O)c1c(Cl)cccc1Cl)C(=O)O [KZ-1-14, (S)-2-(2,6-dichlorobenzamido)-3-(3-(2-methoxybenzyl)ureido)propanoic acid] |
| > 100 µM | O=C(NCc1ccccc1)NC[C@H](NC(=O)C1CCCCC1)C(=O)O [A2-63, (S)-3-(3-benzylureido)-2-(cyclohexanecarboxamido)propanoic acid] |
| > 100 µM | O=C(NCc1ccco1)NC[C@H](NC(=O)c1c(Cl)cccc1Cl)C(=O)O [KZ-1-17, (S)-2-(2,6-dichlorobenzamido)-3-(3-(furan-2-ylmethyl)ureido)propanoic acid] |
| > 100 µM | O=C(NCc1cc(F)cc(F)c1)NC[C@H](NC(=O)c1c(Cl)cccc1Cl)C(=O)O [KZ-1-32, (S)-2-(2,6-dichlorobenzamido)-3-(3-(3,5-difluorobenzyl)ureido)propanoic acid] |
| 10 to 100 µM | CC(NC(=O)NC[C@H](NC(=O)c1c(Cl)cccc1Cl)C(=O)O)C12CC3CC(CC(O)(C3)C1)C2 (stereo partly drawn) [A2-152, (2S)-2-(2,6-dichlorobenzamido)-3-(3-(1-(3-hydroxyadamantan-1-yl)ethyl)ureido)propanoic acid] |
| < 10 µM | O=C(NC[C@H](NC(=O)c1c(Cl)cccc1Cl)C(=O)O)NC1CC2CCC1C2 (stereo partly drawn) [A2-172, (2S)-3-(3-(bicyclo[2.2.1]heptan-2-yl)ureido)-2-(2,6-dichlorobenzamido)propanoic acid] |
| 10 to 100 µM | CC(NC(=O)NC[C@H](NC(=O)c1c(Cl)cccc1Cl)C(=O)O)C12CC3CC(CC(C3)C1)C2 (stereo partly drawn) [A2-132, (2S)-3-(3-(1-(adamantan-1-yl)ethyl)ureido)-2-(2,6-dichlorobenzamido)propanoic acid] |
| 10 to 100 µM | O=C(NCc1ccc(Br)cc1)NC[C@H](NC(=O)c1c(Cl)cccc1Cl)C(=O)O [KZ-1-23, (S)-3-(3-(4-bromobenzyl)ureido)-2-(2,6-dichlorobenzamido)propanoic acid] |
| 10 to 100 µM | CC(CC12CC3CC(CC(C3)C1)C2)NC(=O)NC[C@H](NC(=O)c1c(Cl)cccc1Cl)C(=O)O (stereo partly drawn) [A2-155, (2S)-3-(3-(1-(adamantan-1-yl)propan-2-yl)ureido)-2-(2,6-dichlorobenzamido)propanoic acid] |
| < 10 µM | O=C(NCC1CCc2ccccc21)NC[C@H](NC(=O)c1c(Cl)cccc1Cl)C(=O)O (stereo partly shown) [A2-123] |
| 10 to 100 µM | O=C(NCCC1C2CC3CC(C2)CC1C3)NC[C@H](NC(=O)c1c(Cl)cccc1Cl)C(=O)O (stereo partly shown) [A2-134] |
| 10 to 100 µM | O=C(NC[C@H](NC(=O)c1c(Cl)cccc1Cl)C(=O)O)NC12CC3CC(CC1C3)C2 [A2-145, (2S)-2-(2,6-dichlorobenzamido)-3-(3-(hexahydro-2,5-methanopentalen-3a(1H)-yl)ureido)propanoic acid] |
| < 10 µM | O=C(NCc1ccccc1)NC[C@H](NC(=O)c1c(Cl)cncc1Cl)C(=O)O [A2-29, (S)-3-(3-benzylureido)-2-(3,5-dichloroisonicotinamido)propanoic acid] |
